Values after ≈ are worked out from the molar mass of the structure shown.
Key:
[1] = Measurement of solubility in buffer at pH 6.5; format: physicochemical; details: aqueous buffer, kinetic from dmso stock; PBS buffer pH 6.5, shaken 24h at rt, LC-MSMS; read-out: Solubility of example compounds at pH 6.5
Procedure: Measurement of Solubility in Buffer at pH 6.5 2-4 mg of the test compound are dissolved in DMSO to reach a concentration of 50 g/L (solution A). To 10 μl of this solution 960 μl PBS buffer pH 6.5 are added (final concentration: 515 μg/1); the mixture is shaken for 24h at rt in a 96 well plate. An aliquot is centrifuged at 42000 rpm für 30 min. The supernatant is diluted with acetonitrile/water (8:2) 1:10 and 1:1000 resp. This diluted samples are analyzed by LC-MSMS. Calibration: 10 μl of solution A are diluted with 823 μl DMSO (final concentration: 600 μg/ml), which is further diluted with acetonitrile/water 8:2 by a factor of 100 (provides solution B). The calibration curve is obtained from solution B by further diluting with acetonitrile/water 8:2 with target concentrations of 1.2-12-60-600 ng/ml and injecting these four solutions for MS measurement. PBS-Puffer: 6.18 g sodium chloride and 3.96 g sodium dihydrogen phosphate are dissolved in 1 L aqua dist., the pH is adjusted to 6.5 with 1N sodium hydroxide. The following conditions were used for quantification: Autosampler without auto inject ahead setting, column: Waters OASIS HLB, 2,1×20 mm, 25μ, column temperature: 30° C., flow rate: 2.5 mL/min, injected volume: 2 μl, Splitter (before MS) 1:20.

Dermacentor variabilis [2] = assay: Antiparasitic activity after administration to rats, tick nymphs; format: in vivo; details: for tick efficacy on rats compared with the parent drug also injected subcutaneously: SC; for Efficacy SD42: sc, DV N, study day 42, 13.33-13.98 mg/kg prodrugs
Procedure: (§1) Measurement of the Antiparasitic Activity after Administration of a Prodrug to Rats Compounds were dissolved in the appropriate volume of glycerol formal (p.a.) just before application to the animals (dose volume was adjusted to 0.03 mL/kg bodyweight). 5 rats per group were either injected intraperitoneally or subcutaneously. Rats were infested with 30 Dermacentor variabilis nymphs on study days −2, 7, 14, 21, 28, 35 and 30 adult Ctenocephalides fleas on study days −1, 8, 15, 22, 29, 36. […] Percent efficacy was calculated as arithmetic mean parasite numbers as life attached tick numbers and live flea numbers of the respective study group in comparison to parasite counts on a placebo-treated control group. Infestation of groups with less than 75% efficacy on two consecutive counting occasions will terminated for the respective parasite.

Ctenocephalides felis = assay: Antiparasitic activity after administration to rats, fleas; format: in vivo; details: for flea efficacy on rats compared with the parent drug also injected subcutaneously: SC; for Efficacy SD42: sc, CF A, study day 42, 13.33-13.98 mg/kg prodrugs
Procedure: as §1

[3] = Degradation of prodrugs and release of parent compound in dog plasma; format: in vitro ADME
Procedure: Measurement of Release of Parent Compound in Dog Plasma 1 mg of the test compound was dissolved in 0.5 mL acetonitrile/dimethylsulfoxide 9:1. For complete dissolution the HPLC vial was shaken and treated with ultrasound. 20 μl of this solution were added to 1 mL of dog plasma (Beagle) under vortexing at a temperature of 37° C. Aliquots (100 μL each) were taken at 0.17, 0.5, 1, 1.5, 2 and 4 hours. Each aliquot was transferred to a vial containing 300 μL of acetonitrile/citric acid buffer pH 3 80:20. These solutions were centrifuged at 5000 rpm for 10 minutes. The supernatant was analysed by HPLC (Method 8) to determine the amount of the test compound. In addition, the reaction mixture was analysed by method 9 (HPLC-MS) at the final timepoint. Both decrease of the prodrug concentration and increase of parent compound concentration were monitored. All data is given as percent area of the prodrug at t0.

Dermacentor variabilis [4] = assay: Antiparasitic activity after administration to dogs, D. variabilis ticks; format: in vivo; details: sc
Procedure: Measurement of the Antiparasitic Activity after Administration of a Prodrug to Dogs
Compounds were dissolved in the appropriate volume of glycerol formal (p.a.) just before application to the animals (dose volume was adjusted to 0.1 ml/kg bodyweight). Dogs were injected intravenously respective subcutaneously (see table 8 for details).
Dogs were infested with ectoparasites according to table on study 1 day prior to counting for fleas, 2 days prior to counting for RS, IR, DV ticks and 3 days prior to counting for AA ticks. For this purpose, dogs were placed in an individually labeled box with grid windows. The ticks were released onto the back of the dogs and were allowed to disperse and move into the hair without disturbance. The dog remained in the box for approximately 120 minutes with the lid closed and the light switched off in the room. For flea infestations, flea containers were opened in the animal's cage and fleas were applied on the dog's back between the shoulders.
Tick counts including removal of I. ricinus, R. sanguineus and D. variabilis were conducted 48(±4) hours after the infestation. Tick counts including removal of A. americanum were conducted 72(±4) hours after the infestation. Flea counts were conducted 24(±4) hours after the infestation.
On each parasite assessment day percent efficacy was calculated as arithmetic mean parasite numbers as life attached and live free tick numbers and live flea numbers of the respective study group in comparison to parasite counts on a placebo non-treated control group.

SMILES | solubility at 24 h [1] [µg/mL] | tick efficacy on rats compared with the parent drug also injected subcutaneously (Dermacentor variabilis [2]) | Efficacy SD42 (Dermacentor variabilis [2]) [%] | flea efficacy on rats compared with the parent drug also injected subcutaneously (Ctenocephalides felis) | Efficacy SD42 (Ctenocephalides felis) [%] | further results
N#CC1(N(COC(=O)OCCOC(=O)/C=C/C(=O)O)C(=O)c2cc(-c3cnn(-c4c(Cl)cc(C(F)(C(F)(F)F)C(F)(F)F)cc4OC(F)(F)F)c3)ccc2Cl)CC1 [Example 1, (11E)-1-(2-Chloro-5-{1-[2-chloro-4-(1,1,1,2,3,3,3-heptafluoropropan-2-yl)-6-(trifluoromethoxy)phenyl]-1H-pyrazol-4-yl}phenyl)-2-(1-cyanocyclopropyl)-1,5,10-trioxo-4,6,9-trioxa-2-azatridec-11-en-13-oic Acid] | 5 (≈ 5.78 µM) | superior | 81 | superior | 79 | % Parent Drug 4 h ([3]; Beagle, dog, 4 h, 39.2 µg/mL): 32%; recovery at 0.17 h, 39 µg/mL ([3]; dog plasma (Beagle), 37° C., 0.17 h, percent area of prodrug at t0): 100%; recovery at 0.5 h, 39 µg/mL ([3]; dog plasma (Beagle), 37° C., 0.5 h): 100%; recovery at 1 h, 39 µg/mL ([3]; dog plasma (Beagle), 37° C., 1 h): 100%; recovery at 1.5 h, 39 µg/mL ([3]; dog plasma (Beagle), 37° C., 1.5 h): 88%; recovery at 2 h, 39 µg/mL ([3]; dog plasma (Beagle), 37° C., 2 h): 82%; recovery at 4 h, 39 µg/mL ([3]; dog plasma (Beagle), 37° C., 4 h): 54%; duration of efficacy against D. variabilis as least sensitive species (Dermacentor variabilis [4]): five; % Efficacy in study month 4 (Dermacentor variabilis [4]; 13.33 mg/kg (=10 parent), DV, study 4, month 4): 96%; % Efficacy in study month 5 (Dermacentor variabilis [4]; 13.33 mg/kg (=10 parent), DV, study 4, month 5): 100%; % Efficacy in study month 6 (Dermacentor variabilis [4]; 13.33 mg/kg (=10 parent), DV, study 4, month 6): 77%
N#CC1(N(COC(=O)OCCCOC(=O)/C=C/C(=O)O)C(=O)c2cc(-c3cnn(-c4c(Cl)cc(C(F)(C(F)(F)F)C(F)(F)F)cc4OC(F)(F)F)c3)ccc2Cl)CC1 [Example 2, (12E)-1-(2-Chloro-5-{1-[2-chloro-4-(1,1,1,2,3,3,3-heptafluoropropan-2-yl)-6-(trifluoromethoxy)phenyl]-1H-pyrazol-4-yl}phenyl)-2-(1-cyanocyclopropyl)-1,5,11-trioxo-4,6,10-trioxa-2-azatetradec-12-en-14-oic Acid] | 4 (≈ 4.55 µM) |  | 82 |  | 69 | 
CC(C)(COC(=O)/C=C/C(=O)O)COC(=O)OCN(C(=O)c1cc(-c2cnn(-c3c(Cl)cc(C(F)(C(F)(F)F)C(F)(F)F)cc3OC(F)(F)F)c2)ccc1Cl)C1(C#N)CC1 [Example 4, (12E)-1-(2-chloro-5-{1-[2-chloro-4-(1,1,1,2,3,3,3-heptafluoropropan-2-yl)-6-(trifluoromethoxy)phenyl]-1H-pyrazol-4-yl}phenyl)-2-(1-cyanocyclopropyl)-8,8-dimethyl-1,5,11-trioxo-4,6,10-trioxa-2-azatetradec-12-en-14-oic Acid] | 2 (≈ 2.2 µM) | superior |  | superior |  | 
CC(C)(COC(=O)OCN(C(=O)c1cc(-c2cnn(-c3c(Cl)cc(C(F)(C(F)(F)F)C(F)(F)F)cc3OC(F)(F)F)c2)ccc1Cl)C1(C#N)CC1)C(=O)O [Example 41, 3-[({[(2-Chloro-5-{1-[2-chloro-4-(1,1,1,2,3,3,3-heptafluoropropan-2-yl)-6-(trifluoromethoxy)phenyl]-1H-pyrazol-4-yl}benzoyl)(1-cyanocyclopropyl)amino]methoxy}carbonyl)oxy]-2,2-dimethylpropanoic Acid] | 4 (≈ 4.86 µM) |  |  |  |  | 
Cn1nc(C(F)(F)C(F)(F)F)c(C(F)(F)F)c1-n1cc(-c2ccc(Cl)c(C(=O)N(COC(=O)O[C@H]3CCC[C@@H]3OC(=O)/C=C/C(=O)O)C3(C#N)CC3)c2)cn1 [Example 42, (2E)-4-({(1S,2S)-2-[({[{2-Chloro-5-[2′-methyl-5′-(pentafluoroethyl)-4′-(trifluoromethyl)-2′H-[1,3′-bipyrazol]-4-yl]benzoyl}(1-cyanocyclopropyl)amino]methoxy}carbonyl)oxy]cyclopentyl}oxy)-4-oxobut-2-enoic Acid] | 38 (≈ 47 µM) |  |  |  |  | 
